Laboratory results reported in PubChem BioAssay (NCI).
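Where inhibition never reached the appropriate level, the endpoint shown equals the highest concentration tested. Otherwise, values were interpolated linearly from a five-concentration, 48-hour dose response in 96-well plates. The concentration for full growth arrest is given as TGI.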

Assays:
Assay in all cases: NCI anticancer screen, dose series, 48 h
NCI-H23 lung = test system: NCI-H23 lung
MDA-N = test system: MDA-N
SR leukemia = test system: SR leukemia
NCI/ADR-RES ovarian = test system: NCI/ADR-RES ovarian
786-0 renal = test system: 786-0 renal
OVCAR-3 ovarian = test system: OVCAR-3 ovarian
SNB-19 CNS = test system: SNB-19 CNS
SF-539 CNS = test system: SF-539 CNS
HOP-92 NSCLC = test system: HOP-92 NSCLC
HS 578T breast = test system: HS 578T breast
M14 melanoma = test system: M14 melanoma
EKVX NSCLC = test system: EKVX NSCLC
NCI-H460 lung = test system: NCI-H460 lung
HCT-15 colon = test system: HCT-15 colon
T-47D breast = test system: T-47D breast
PC-3 prostate = test system: PC-3 prostate
MDA-MB-231 breast = test system: MDA-MB-231 breast
OVCAR-8 ovarian = test system: OVCAR-8 ovarian
HCC-2998 colon = test system: HCC-2998 colon
K-562 leukemia = test system: K-562 leukemia
MCF7 breast = test system: MCF7 breast
U251 CNS = test system: U251 CNS
RXF 393 renal = test system: RXF 393 renal
MDA-MB-435 = test system: MDA-MB-435
HOP-62 NSCLC = test system: HOP-62 NSCLC
CAKI-1 renal = test system: CAKI-1 renal
LOX IMVI melanoma = test system: LOX IMVI melanoma
IGROV1 ovarian = test system: IGROV1 ovarian
SK-MEL-28 melanoma = test system: SK-MEL-28 melanoma
SF-268 CNS = test system: SF-268 CNS
MALME-3M melanoma = test system: MALME-3M melanoma
UACC-257 melanoma = test system: UACC-257 melanoma
CCRF-CEM leukemia = test system: CCRF-CEM leukemia
HT29 colon = test system: HT29 colon
A549 NSCLC = test system: A549 NSCLC
SNB-75 CNS = test system: SNB-75 CNS
SW-620 colon = test system: SW-620 colon
TK-10 renal = test system: TK-10 renal
HL-60(TB) leukemia = test system: HL-60(TB) leukemia
SF-295 CNS = test system: SF-295 CNS
MOLT-4 leukemia = test system: MOLT-4 leukemia
BT-549 breast = test system: BT-549 breast
ACHN renal = test system: ACHN renal
NCI-H522 lung = test system: NCI-H522 lung
A498 renal = test system: A498 renal
HCT-116 colon = test system: HCT-116 colon
DU-145 prostate = test system: DU-145 prostate
SK-MEL-5 melanoma = test system: SK-MEL-5 melanoma
KM12 colon = test system: KM12 colon
SN12C renal = test system: SN12C renal
OVCAR-5 ovarian = test system: OVCAR-5 ovarian
NCI-H226 lung = test system: NCI-H226 lung
RPMI-8226 leukemia = test system: RPMI-8226 leukemia
UO-31 renal = test system: UO-31 renal
SK-MEL-2 melanoma = test system: SK-MEL-2 melanoma

## O=c1[nH]nc(-c2ccccc2)n1/N=C/c1cccnc1
NCI-H23 lung
  TGI: > 100 µM
MDA-N
  TGI: > 100 µM
SR leukemia
  TGI: > 100 µM
NCI/ADR-RES ovarian
  TGI: > 100 µM
786-0 renal
  TGI: > 100 µM
OVCAR-3 ovarian
  TGI: > 100 µM
SNB-19 CNS
  TGI: > 100 µM
SF-539 CNS
  TGI: > 100 µM
HOP-92 NSCLC
  TGI: > 100 µM
HS 578T breast
  TGI: > 100 µM
M14 melanoma
  TGI: > 100 µM
EKVX NSCLC
  TGI: > 100 µM
NCI-H460 lung
  TGI: > 100 µM
HCT-15 colon
  TGI: > 100 µM
T-47D breast
  TGI: > 100 µM
PC-3 prostate
  TGI: > 100 µM
MDA-MB-231 breast
  TGI: > 100 µM
OVCAR-8 ovarian
  TGI: > 100 µM
HCC-2998 colon
  TGI: > 100 µM
K-562 leukemia
  TGI: > 100 µM
MCF7 breast
  TGI: > 100 µM
U251 CNS
  TGI: > 100 µM
RXF 393 renal
  TGI: > 100 µM
MDA-MB-435
  TGI: > 100 µM
HOP-62 NSCLC
  TGI: > 100 µM
CAKI-1 renal
  TGI: 72.4 µM
LOX IMVI melanoma
  TGI: > 100 µM
IGROV1 ovarian
  TGI: > 100 µM
SK-MEL-28 melanoma
  TGI: > 100 µM
SF-268 CNS
  TGI: > 100 µM
MALME-3M melanoma
  TGI: > 100 µM
UACC-257 melanoma
  TGI: > 100 µM
CCRF-CEM leukemia
  TGI: > 100 µM
HT29 colon
  TGI: > 100 µM
A549 NSCLC
  TGI: > 100 µM
SNB-75 CNS
  TGI: > 100 µM
SW-620 colon
  TGI: > 100 µM
TK-10 renal
  TGI: > 100 µM
HL-60(TB) leukemia
  TGI: > 100 µM
SF-295 CNS
  TGI: > 100 µM
MOLT-4 leukemia
  TGI: > 100 µM
BT-549 breast
  TGI: > 100 µM
ACHN renal
  TGI: > 100 µM
NCI-H522 lung
  TGI: > 100 µM
A498 renal
  TGI: > 100 µM
HCT-116 colon
  TGI: > 100 µM
DU-145 prostate
  TGI: > 100 µM
SK-MEL-5 melanoma
  TGI: > 100 µM
KM12 colon
  TGI: > 100 µM
SN12C renal
  TGI: > 100 µM
OVCAR-5 ovarian
  TGI: > 100 µM
NCI-H226 lung
  TGI: > 100 µM
RPMI-8226 leukemia
  TGI: > 100 µM
UO-31 renal
  TGI: > 100 µM

## CCCCCC(C)SC1(C(=O)OC)CC(OC(C)=O)C(NC(C)=O)C([C@H](OC(C)=O)[C@@H](COC(C)=O)OC(C)=O)O1 (stereo partly specified)
NCI-H23 lung
  TGI: > 100 µM
MDA-N
  TGI: > 100 µM
SK-MEL-2 melanoma
  TGI: 64.4 µM
SR leukemia
  TGI: > 100 µM
NCI/ADR-RES ovarian
  TGI: > 100 µM
786-0 renal
  TGI: > 100 µM
OVCAR-3 ovarian
  TGI: > 100 µM
SNB-19 CNS
  TGI: > 100 µM
SF-539 CNS
  TGI: 70.1 µM
HOP-92 NSCLC
  TGI: > 100 µM
HS 578T breast
  TGI: 97 µM
M14 melanoma
  TGI: > 100 µM
NCI-H460 lung
  TGI: > 100 µM
HCT-15 colon
  TGI: > 100 µM
T-47D breast
  TGI: > 100 µM
PC-3 prostate
  TGI: > 100 µM
MDA-MB-231 breast
  TGI: > 100 µM
OVCAR-8 ovarian
  TGI: > 100 µM
HCC-2998 colon
  TGI: > 100 µM
K-562 leukemia
  TGI: > 100 µM
MCF7 breast
  TGI: > 100 µM
U251 CNS
  TGI: > 100 µM
RXF 393 renal
  TGI: > 100 µM
MDA-MB-435
  TGI: > 100 µM
HOP-62 NSCLC
  TGI: > 100 µM
CAKI-1 renal
  TGI: > 100 µM
IGROV1 ovarian
  TGI: > 100 µM
SK-MEL-28 melanoma
  TGI: > 100 µM
SF-268 CNS
  TGI: > 100 µM
MALME-3M melanoma
  TGI: > 100 µM
UACC-257 melanoma
  TGI: > 100 µM
HT29 colon
  TGI: > 100 µM
A549 NSCLC
  TGI: > 100 µM
SNB-75 CNS
  TGI: > 100 µM
SW-620 colon
  TGI: > 100 µM
TK-10 renal
  TGI: > 100 µM
HL-60(TB) leukemia
  TGI: > 100 µM
SF-295 CNS
  TGI: > 100 µM
MOLT-4 leukemia
  TGI: > 100 µM
BT-549 breast
  TGI: > 100 µM
ACHN renal
  TGI: > 100 µM
NCI-H522 lung
  TGI: > 100 µM
A498 renal
  TGI: > 100 µM
HCT-116 colon
  TGI: > 100 µM
DU-145 prostate
  TGI: > 100 µM
SK-MEL-5 melanoma
  TGI: > 100 µM
KM12 colon
  TGI: > 100 µM
SN12C renal
  TGI: > 100 µM
OVCAR-5 ovarian
  TGI: > 100 µM
NCI-H226 lung
  TGI: > 100 µM
RPMI-8226 leukemia
  TGI: > 100 µM
UO-31 renal
  TGI: > 100 µM
